Test results as given in paper PMC11481179, “Development and Application of Reversible and Irreversible Covalent Probes for Human and Mouse Cathepsin‐K Activity Detection, Revealing Nuclear Activity” (Advanced Science, 2024).

Legend:
CTSK = biological target: T1, CTSK (Homo sapiens, UniProt P43235); test: In vitro kinetic evaluation of cathepsin inhibition, fluorescent substrate Z-FR-AMC; format: biochemical; conditions: for mode of inhibition: CTSK
T1 sequence (P43235 115-329): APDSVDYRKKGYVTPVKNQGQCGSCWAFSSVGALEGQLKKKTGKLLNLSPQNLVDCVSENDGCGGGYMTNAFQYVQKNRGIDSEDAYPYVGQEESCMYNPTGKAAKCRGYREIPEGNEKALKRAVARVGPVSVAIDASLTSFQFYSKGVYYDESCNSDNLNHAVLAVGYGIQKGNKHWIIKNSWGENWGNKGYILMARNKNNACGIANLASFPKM
Source text: used for TLC. Phosphate Buffer Saline (PBS) was purchased from Biological Industries (pH = […]
7.4) and was used as a buffer system in all experiments if not indicated otherwise. […]
Recombinant human CTSB, CTSK, CTSL, and CTSS were supplied by B. Turk (J.
Stefan Institute).[1] […]
Fluorescent gels were scanned by a Typhoon FLA 9500 flatbed laser scanner (GE Healthcare […]
Bio-Sciences AB, Uppsala, Sweden). BioRad ChemiDox XRS+ was used for western blot […]
analysis. Olympus FV10i inverted microscope (Tokyo,Japan) with Fluoview software or Zeiss […]
Confocal LSM 980 with Airyscan (Germany) with Zen software were used for confocal […]
In vitro kinetic evaluation of labeling recombinant cathepsins:
Reactions were monitored for 30 min at 37° C in 96-well black flat-bottom microplates […]
(Greiner, Germany) using Tecan […] M1000 pro plate reader (Tecan, Switzerland), […]
substrates Z-RR-AMC (CTSL) or Z-FR-AMC (CTSS, CTSB and CTSK), and excitation and […]
(§1) emission wavelengths of 370 and 460 nm, respectively. Cathepsin concentrations in the assay were 0.4 nM (CTSK) or 5 nM (CTSS, CTSB, and CTSL). The buffer was 100 mM Na2HPO4/NaH2PO4, 50 mM NaCl, 5 mM DTT, 0,1% Peg-6000, pH 6. For irreversible inhibitors, reaction data were fitted to the one-phase association formula in GraphPad Prism 9 software: Y=Y0 + (Plateau-Y0)*(1-exp(-K*X)) where in this case Y0 and Y represent fluorescence signal at times 0 and t, respectively, K represent the observed reaction rate kobs and X the inhibitor concentration. Inactivation rates at each inhibitor concentration were […]
maximal rate of inactivation (kinact) was obtained as the asymptote from equation […]
for each X, and Kiapp is the apparent inhibition constant. Ki values were calculated from IC50 or from Kiapp using formulas Ki = Kiapp / (1 + Km/S) and IC50 = E0/2 + Kiapp, where Km stands for Michalis-Menten constant, S for substrate concentration and E0 for cathepsin concentration.
The highest inhibitor concentrations in the assay were 50 µM. Measurements were performed in several independent duplicates. Average values are presented with standard deviations. […]

CTSS = CTSS (Homo sapiens, UniProt P25774); test: Recombinant cathepsin labeling by ABPs, in-gel fluorescence; format: binding; conditions: increasing probe concentrations, 1 h
Experimental: The ABPs were tested for binding to recombinant CTSK compared to the closely related CTSB, CTSL, and CTSS, which are highly abundant and active in most biological samples. Using the in‐gel fluorescent analysis that detects the stable enzyme‐probe complex, active CTSK was labeled with each of the four probes, and significant selectivity was found in three probes GD32, GD37, and GD42 (Figure 1a). […] However, the minimum amount of active CTSK the remaining probes detected was much higher, ranging from 8 to 70 ngs, (Figure 1b).
Figure 1 In vitro evaluation of CTSK targeted compounds. a) Labeling of recombinant cathepsins by ABPs. Recombinant cathepsins were treated with increasing concentrations of ABPs for 1 h. Samples were separated by SDS‐PAGE and scanned for fluorescence by a Typhoon scanner at 635/670 nm. All probes show dose‐dependent binding to the CTSK, and have lower affinity to CTSS except GD36, b) CTSK [0.5–280 ng] was labeled with the indicated ABPs [5 µM]. Incubations were performed for 1 h at 37 °C, at pH 5.5. Samples were analyzed as described in (a). c) Recombinant cathepsins B, K, L, and S [0.5 µM] were first treated with the indicated concentrations of the inhibitor GD30 or vehicle for 1 h followed by incubation with a pan cathepsin probe GB123 [1 µM] for 1 h. Samples were analyzed as described in (a). d) Quantitative analysis of CTSK inhibition by GD30 presented in (d), data represent mean values ± standard error, n = 3. e) IC50 plot of GD30 inhibition of CTSK activity. […]
as §1, with “The buffer was 100 mM Na2HPO4/NaH2PO4, 50 mM NaCl, 5 mM DTT, 0,1% Peg-6000, pH 6.” left out, “concentration.” for “concentration. Inactivation rates at each inhibitor concentration were”
reaction was stopped and samples were analyzed as described above. […]

Sequence of CTSS (P25774 115-331): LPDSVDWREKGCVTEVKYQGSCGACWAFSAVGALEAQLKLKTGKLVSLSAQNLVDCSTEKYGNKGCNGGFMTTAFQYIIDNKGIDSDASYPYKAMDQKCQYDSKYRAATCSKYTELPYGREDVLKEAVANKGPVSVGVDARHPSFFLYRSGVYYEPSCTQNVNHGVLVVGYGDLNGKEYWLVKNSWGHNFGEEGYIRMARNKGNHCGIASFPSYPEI

mode of inhibition (CTSK)	Ki (CTSK; CTSK 0.4 nM, pH 6, 37 °C)	kinact (CTSK; CTSK 0.4 nM, pH 6, 37 °C)	kinact/Ki (CTSK; CTSK 0.4 nM, pH 6, 37 °C)	IC50 (CTSK; CTSK 0.4 nM, tight binding)	SMILES	labeling of CTSS relative to CTSK (CTSS)
Irreversible	3.6 nM	0.0007 ± 0.0001 s⁻¹	26 ± 14 × 10^4 M^−1sec^−1	–	C#CCNC(=O)[C@H](CC(C)C)N[C@@H](c1ccc(-c2ccc(S(=O)(=O)CCNC(=O)CCCCC[N+]3=C(/C=C/C=C/C=C4/N(C)c5ccc(S(=O)(=O)O)cc5C4(C)C)C(C)(C)c4cc(S(=O)(=O)O)ccc43)cc2)cc1)C(F)(F)F [GD32]	only labeled CTSS at higher concentrations
Reversible [Tight binding]	–	–	–	0.4 nM	CC(C)C[C@H](N[C@@H](c1ccc(-c2ccc(S(=O)(=O)CCNC(=O)CCCCC[N+]3=C(/C=C/C=C/C=C4/N(C)c5ccc(S(=O)(=O)O)cc5C4(C)C)C(C)(C)c4cc(S(=O)(=O)O)ccc43)cc2)cc1)C(F)(F)F)C(=O)NC1(C#N)CC1 [GD37]	only labeled CTSS at higher concentrations
